Measured values: ChEMBL document CHEMBL5096151, “Phytocannabinoid Pharmacology: Medicinal Properties of Cannabis sativa Constituents Aside from the "Big Two"” (J Nat Prod, 2021)
Converted amounts (≈) assume the structure as drawn.

What was measured:
Cytochrome P450 2B6 [1] = biological target: T1, Cytochrome P450 2B6 (Homo sapiens, UniProt P20813); assay: Mixed inhibition of recombinant human CYP2B6 using coumarin as substrate preincubated with NADPH for 20 mins and measured after 30 min by Lineweaver-burk plots analysis; assay type: ADME
T1 sequence (P20813 whole entry): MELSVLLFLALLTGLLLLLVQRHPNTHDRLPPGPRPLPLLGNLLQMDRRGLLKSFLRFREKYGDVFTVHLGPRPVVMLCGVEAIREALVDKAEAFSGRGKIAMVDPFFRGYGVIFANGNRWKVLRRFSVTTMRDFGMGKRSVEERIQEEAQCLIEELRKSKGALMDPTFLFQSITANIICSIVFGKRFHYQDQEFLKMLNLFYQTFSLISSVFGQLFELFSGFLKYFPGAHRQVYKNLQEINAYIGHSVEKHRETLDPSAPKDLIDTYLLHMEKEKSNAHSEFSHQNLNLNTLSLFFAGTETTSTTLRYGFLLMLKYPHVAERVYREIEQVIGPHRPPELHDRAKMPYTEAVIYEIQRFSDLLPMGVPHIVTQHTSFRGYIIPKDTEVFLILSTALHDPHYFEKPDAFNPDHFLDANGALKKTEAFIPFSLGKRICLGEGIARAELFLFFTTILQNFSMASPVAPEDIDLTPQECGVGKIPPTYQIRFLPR

Cannabinoid receptor 1 [2] = biological target: T2, Cannabinoid receptor 1 (Homo sapiens, UniProt P21554); assay: Binding affinity to CB1 (unknown origin) expressed in CHO -k1 cells assessed as inhibition constant; assay type: cell-based
T2 sequence (P21554 whole entry): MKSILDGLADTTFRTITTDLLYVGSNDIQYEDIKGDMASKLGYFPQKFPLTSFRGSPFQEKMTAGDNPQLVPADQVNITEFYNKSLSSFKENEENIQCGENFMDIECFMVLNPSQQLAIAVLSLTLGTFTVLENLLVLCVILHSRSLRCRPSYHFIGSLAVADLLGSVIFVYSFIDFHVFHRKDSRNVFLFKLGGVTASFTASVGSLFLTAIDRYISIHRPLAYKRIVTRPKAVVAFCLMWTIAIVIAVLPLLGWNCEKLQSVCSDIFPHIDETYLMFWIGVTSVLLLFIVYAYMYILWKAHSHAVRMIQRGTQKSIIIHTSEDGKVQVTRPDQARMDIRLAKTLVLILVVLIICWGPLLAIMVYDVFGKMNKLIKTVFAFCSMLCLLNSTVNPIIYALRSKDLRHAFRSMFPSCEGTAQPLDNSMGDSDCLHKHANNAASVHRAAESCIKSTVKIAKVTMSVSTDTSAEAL

[3] = biological target: T3, Transient receptor potential cation channel subfamily V member 4 (Homo sapiens, UniProt Q9HBA0); assay: Agonist activity at ionomycin-stimulated TRPV4 (unknown origin) activation assessed as efficacy relative to control; conditions: filed as agonist
T3 sequence (Q9HBA0 whole entry): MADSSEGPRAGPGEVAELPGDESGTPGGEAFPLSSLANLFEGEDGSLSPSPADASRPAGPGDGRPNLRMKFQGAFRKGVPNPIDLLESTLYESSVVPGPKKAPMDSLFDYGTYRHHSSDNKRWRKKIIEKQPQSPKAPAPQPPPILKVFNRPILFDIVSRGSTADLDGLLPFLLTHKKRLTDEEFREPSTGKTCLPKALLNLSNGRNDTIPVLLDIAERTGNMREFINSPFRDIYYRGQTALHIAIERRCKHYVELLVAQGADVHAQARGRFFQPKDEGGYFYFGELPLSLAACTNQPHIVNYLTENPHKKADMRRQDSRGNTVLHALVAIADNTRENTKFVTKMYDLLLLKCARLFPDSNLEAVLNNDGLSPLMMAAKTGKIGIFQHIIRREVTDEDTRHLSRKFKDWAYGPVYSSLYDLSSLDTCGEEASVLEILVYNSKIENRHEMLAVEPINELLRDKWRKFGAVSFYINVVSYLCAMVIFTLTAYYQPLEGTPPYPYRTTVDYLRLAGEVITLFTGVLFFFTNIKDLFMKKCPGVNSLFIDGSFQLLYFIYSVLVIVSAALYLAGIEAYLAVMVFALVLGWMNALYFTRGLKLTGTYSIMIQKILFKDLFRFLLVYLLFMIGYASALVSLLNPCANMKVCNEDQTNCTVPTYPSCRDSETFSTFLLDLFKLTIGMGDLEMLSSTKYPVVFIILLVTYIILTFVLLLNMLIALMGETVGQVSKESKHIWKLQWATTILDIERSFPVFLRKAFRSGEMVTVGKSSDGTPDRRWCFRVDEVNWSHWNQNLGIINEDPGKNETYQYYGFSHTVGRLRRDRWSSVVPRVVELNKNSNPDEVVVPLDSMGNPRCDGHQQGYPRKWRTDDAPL

Cytochrome P450 2A6 [4] = biological target: T4, Cytochrome P450 2A6 (Homo sapiens, UniProt P11509); assay: Non competitive inhibition of recombinant human CYP2A6 using coumarin as substrate preincubated with NADPH for 20 mins and measured after 30 min by Lineweaver-burk plots analysis; assay type: ADME
T4 sequence (P11509 whole entry): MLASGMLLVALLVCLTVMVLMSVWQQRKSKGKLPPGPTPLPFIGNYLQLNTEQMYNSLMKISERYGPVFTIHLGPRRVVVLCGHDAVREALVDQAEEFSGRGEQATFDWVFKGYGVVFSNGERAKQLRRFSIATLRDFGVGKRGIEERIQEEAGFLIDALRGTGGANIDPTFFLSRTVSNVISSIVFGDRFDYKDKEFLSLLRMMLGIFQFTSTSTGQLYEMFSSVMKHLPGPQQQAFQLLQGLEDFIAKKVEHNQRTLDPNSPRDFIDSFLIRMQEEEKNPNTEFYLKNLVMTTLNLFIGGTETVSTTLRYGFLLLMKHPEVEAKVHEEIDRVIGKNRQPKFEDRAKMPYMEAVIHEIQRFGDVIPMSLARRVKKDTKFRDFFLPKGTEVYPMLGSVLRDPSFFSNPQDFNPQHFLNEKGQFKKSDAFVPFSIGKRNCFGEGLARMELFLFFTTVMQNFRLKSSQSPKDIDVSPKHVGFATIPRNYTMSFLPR

Cannabinoid receptor 1 [5] = biological target: T2, Cannabinoid receptor 1; assay: Binding affinity to CB1 (unknown origin) assessed as inhibition constant
[6] = biological target: T5, Transient receptor potential cation channel subfamily A member 1 (Homo sapiens, UniProt O75762); assay: Agonist activity at TRPA1 (unknown origin) channel desensitization in presence of isothiocyanate
T5 sequence (O75762 whole entry): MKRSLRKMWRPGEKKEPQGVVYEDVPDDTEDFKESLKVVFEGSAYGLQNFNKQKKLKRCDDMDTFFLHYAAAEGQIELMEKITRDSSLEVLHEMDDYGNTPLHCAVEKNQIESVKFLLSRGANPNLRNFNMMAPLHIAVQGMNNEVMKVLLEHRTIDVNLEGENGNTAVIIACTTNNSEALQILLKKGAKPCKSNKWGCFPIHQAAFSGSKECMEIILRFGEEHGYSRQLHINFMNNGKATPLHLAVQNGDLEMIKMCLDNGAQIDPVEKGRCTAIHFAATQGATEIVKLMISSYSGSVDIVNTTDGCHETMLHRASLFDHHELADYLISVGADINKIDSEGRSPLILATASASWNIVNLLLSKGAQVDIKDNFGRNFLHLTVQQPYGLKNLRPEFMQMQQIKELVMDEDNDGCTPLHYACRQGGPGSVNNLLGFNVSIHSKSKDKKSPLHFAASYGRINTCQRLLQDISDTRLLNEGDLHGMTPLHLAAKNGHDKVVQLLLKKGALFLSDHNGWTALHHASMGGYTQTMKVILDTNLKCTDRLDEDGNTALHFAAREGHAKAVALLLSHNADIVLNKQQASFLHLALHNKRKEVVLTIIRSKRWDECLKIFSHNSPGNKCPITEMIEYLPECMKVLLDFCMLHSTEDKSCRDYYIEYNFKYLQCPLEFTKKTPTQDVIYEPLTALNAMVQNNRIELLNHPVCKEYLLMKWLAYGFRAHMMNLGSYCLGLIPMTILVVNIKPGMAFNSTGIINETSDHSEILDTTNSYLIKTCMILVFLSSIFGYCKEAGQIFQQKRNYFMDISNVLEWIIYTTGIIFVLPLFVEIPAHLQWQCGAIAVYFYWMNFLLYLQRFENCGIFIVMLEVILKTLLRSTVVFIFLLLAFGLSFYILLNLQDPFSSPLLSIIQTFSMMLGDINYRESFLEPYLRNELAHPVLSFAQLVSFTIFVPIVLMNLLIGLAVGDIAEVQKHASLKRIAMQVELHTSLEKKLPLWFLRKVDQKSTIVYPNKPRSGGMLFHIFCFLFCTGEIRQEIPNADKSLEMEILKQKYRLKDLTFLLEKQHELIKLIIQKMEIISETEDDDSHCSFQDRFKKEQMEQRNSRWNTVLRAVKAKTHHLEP

[7] = biological target: T6, Transient receptor potential cation channel subfamily V member 1 (Homo sapiens, UniProt Q8NER1); assay: Agonist activity at ionomycin-stimulated TRPV1 (unknown origin) channel desensitization in presence of capsaicin
T6 sequence (Q8NER1 whole entry): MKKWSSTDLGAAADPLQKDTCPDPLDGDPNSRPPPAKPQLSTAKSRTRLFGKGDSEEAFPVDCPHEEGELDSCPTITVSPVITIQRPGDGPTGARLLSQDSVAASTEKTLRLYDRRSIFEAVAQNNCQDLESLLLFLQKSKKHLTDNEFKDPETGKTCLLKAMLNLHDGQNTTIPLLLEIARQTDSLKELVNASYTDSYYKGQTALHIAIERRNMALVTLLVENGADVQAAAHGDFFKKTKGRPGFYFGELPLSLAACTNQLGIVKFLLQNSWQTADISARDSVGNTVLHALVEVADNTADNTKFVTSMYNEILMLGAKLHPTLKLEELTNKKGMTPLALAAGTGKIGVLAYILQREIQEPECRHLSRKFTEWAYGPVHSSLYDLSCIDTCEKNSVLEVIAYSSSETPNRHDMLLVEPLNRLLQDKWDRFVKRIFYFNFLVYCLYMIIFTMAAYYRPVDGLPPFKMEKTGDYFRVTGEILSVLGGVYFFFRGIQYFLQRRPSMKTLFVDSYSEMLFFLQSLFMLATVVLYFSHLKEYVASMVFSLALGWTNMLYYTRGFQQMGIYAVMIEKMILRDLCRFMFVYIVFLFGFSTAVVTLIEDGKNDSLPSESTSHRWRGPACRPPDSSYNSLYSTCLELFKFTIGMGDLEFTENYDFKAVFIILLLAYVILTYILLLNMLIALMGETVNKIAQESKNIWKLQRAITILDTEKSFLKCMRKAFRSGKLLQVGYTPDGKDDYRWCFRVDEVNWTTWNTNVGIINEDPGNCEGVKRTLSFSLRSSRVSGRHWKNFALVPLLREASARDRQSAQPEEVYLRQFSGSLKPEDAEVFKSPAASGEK

[8] = biological target: T5, Transient receptor potential cation channel subfamily A member 1; assay: Agonist activity at TRPA1 (unknown origin) activation assessed as efficacy relative to control; conditions: filed as agonist
[9] = biological target: T3, Transient receptor potential cation channel subfamily V member 4; assay: Agonist activity at ionomycin-stimulated TRPV4 (unknown origin) channel desensitization in presence of 4alphaPDD
[10] = biological target: T3, Transient receptor potential cation channel subfamily V member 4; assay: Agonist activity at ionomycin-stimulated TRPV4 (unknown origin) activation
[11] = biological target: T5, Transient receptor potential cation channel subfamily A member 1; assay: Agonist activity at TRPA1 (unknown origin) channel desensitization in presence of icilin
[12] = biological target: T7, Transient receptor potential cation channel subfamily V member 2 (Homo sapiens) (UniProt Q9Y5S1); assay: Agonist activity at ionomycin-stimulated TRPV2 (unknown origin) activation assessed as efficacy relative to control; conditions: filed as agonist
T7 sequence (whole entry): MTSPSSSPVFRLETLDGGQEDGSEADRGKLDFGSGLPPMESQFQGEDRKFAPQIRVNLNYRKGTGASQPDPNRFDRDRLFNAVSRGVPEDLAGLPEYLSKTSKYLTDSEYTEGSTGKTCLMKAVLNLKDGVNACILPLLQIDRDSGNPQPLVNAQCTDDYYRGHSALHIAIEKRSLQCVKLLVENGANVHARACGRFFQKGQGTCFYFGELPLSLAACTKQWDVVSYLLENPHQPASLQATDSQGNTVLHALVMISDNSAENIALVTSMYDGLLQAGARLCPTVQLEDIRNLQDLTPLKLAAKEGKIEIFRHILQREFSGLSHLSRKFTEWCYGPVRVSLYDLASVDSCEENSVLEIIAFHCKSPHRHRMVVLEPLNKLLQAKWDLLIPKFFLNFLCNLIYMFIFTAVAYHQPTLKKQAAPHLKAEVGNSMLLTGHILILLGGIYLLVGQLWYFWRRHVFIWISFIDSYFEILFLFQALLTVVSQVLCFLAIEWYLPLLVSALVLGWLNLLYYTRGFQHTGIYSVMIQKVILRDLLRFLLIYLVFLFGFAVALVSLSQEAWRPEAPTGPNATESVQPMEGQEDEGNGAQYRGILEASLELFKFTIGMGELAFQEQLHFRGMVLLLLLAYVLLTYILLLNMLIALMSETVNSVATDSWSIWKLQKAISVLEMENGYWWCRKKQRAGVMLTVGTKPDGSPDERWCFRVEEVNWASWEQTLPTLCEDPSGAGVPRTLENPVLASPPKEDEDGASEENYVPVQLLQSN

[13] = biological target: T6, Transient receptor potential cation channel subfamily V member 1; assay: Agonist activity at ionomycin-stimulated TRPV1 (unknown origin) activation assessed as efficacy relative to control
Staphylococcus aureus = assay: Antibacterial activity against methicillin-resistant Staphylococcus aureus; assay type: functional
Cannabinoid receptor 2 [14] = biological target: T8, Cannabinoid receptor 2 (Homo sapiens, UniProt P34972); assay: Binding affinity to CB2 receptor (unknown origin) expressed in AtT20 cells assessed as inhibition constant; assay type: cell-based
T8 sequence (P34972 whole entry): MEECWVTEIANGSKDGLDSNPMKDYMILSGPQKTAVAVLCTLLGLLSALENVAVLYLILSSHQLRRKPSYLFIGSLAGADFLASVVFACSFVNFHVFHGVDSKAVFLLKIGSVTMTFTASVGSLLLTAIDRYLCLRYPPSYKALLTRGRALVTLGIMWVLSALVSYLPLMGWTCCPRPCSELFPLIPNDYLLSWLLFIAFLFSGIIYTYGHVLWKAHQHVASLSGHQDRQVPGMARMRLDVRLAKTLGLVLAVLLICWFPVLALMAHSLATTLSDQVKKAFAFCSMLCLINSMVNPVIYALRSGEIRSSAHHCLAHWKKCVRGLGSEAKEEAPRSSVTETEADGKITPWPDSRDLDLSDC

[15] = biological target: T9, Transient receptor potential cation channel subfamily V member 3 (Homo sapiens) (UniProt Q8NET8); assay: Agonist activity at ionomycin-stimulated TRPV3 (unknown origin) activation assessed as efficacy relative to control; conditions: filed as agonist
T9 sequence (whole entry): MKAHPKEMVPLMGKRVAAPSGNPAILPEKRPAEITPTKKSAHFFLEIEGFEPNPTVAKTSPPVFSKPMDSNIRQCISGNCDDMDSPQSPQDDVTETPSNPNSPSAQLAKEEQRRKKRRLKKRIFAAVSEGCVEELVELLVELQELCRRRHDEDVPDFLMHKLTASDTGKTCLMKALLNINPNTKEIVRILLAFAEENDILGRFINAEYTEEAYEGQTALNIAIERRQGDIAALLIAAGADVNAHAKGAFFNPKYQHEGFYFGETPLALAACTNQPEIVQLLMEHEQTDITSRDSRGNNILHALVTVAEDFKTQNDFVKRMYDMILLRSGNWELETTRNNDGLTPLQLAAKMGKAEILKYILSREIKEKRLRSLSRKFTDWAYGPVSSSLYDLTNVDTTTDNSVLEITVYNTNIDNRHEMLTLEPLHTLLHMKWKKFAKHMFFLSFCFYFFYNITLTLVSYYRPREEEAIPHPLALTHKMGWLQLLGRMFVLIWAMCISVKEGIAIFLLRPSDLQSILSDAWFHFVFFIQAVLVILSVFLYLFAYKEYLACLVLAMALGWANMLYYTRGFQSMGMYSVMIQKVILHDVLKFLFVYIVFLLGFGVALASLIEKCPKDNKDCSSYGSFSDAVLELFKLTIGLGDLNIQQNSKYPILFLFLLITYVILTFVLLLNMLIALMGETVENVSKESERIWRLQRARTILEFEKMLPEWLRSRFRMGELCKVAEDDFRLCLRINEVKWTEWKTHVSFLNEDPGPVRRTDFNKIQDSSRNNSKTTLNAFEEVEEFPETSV

[16] = biological target: T5, Transient receptor potential cation channel subfamily A member 1; assay: Agonist activity at TRPA1 (unknown origin) activation
[17] = biological target: T10, Transient receptor potential cation channel subfamily V member 3 (Homo sapiens, UniProt Q8NET8); assay: Agonist activity at ionomycin-stimulated TRPV3 (unknown origin) channel desensitization in presence of carvacrol
T10 sequence (Q8NET8 whole entry): T9 sequence (whole entry)

Cytochrome P450 2J2 = Cytochrome P450 2J2 (Homo sapiens, UniProt P51589); assay: Non competitive inhibition of CYP2J2 (unknown origin) in presence of NADPH by LC-MS/MS analysis; assay type: ADME
Cytochrome P450 2J2, sequence (P51589 whole entry): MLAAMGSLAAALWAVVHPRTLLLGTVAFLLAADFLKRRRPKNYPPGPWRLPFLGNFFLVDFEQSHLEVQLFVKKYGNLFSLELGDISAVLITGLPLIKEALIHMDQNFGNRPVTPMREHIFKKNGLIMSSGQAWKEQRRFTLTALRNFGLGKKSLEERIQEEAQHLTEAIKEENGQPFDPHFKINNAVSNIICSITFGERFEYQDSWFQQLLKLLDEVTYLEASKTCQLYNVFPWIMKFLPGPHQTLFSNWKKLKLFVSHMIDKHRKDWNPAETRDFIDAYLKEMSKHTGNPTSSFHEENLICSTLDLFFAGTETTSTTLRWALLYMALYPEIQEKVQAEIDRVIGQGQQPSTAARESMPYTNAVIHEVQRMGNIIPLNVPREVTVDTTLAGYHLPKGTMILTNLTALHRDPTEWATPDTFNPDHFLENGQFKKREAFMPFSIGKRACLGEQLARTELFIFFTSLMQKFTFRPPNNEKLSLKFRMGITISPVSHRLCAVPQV

HT-22 = assay: Neuroprotection against glutamate-induced oxytosis in mouse HT-22 cells assessed as cell viability; assay type: functional, cell-based
[18] = biological target: T11, Transient receptor potential cation channel subfamily V member 2 (Homo sapiens, UniProt Q9Y5S1); assay: Agonist activity at ionomycin-stimulated TRPV2 (unknown origin) channel desensitization in presence of lysophosphatidylcholine
T11 sequence (Q9Y5S1 whole entry): T7 sequence (whole entry)

[19] = biological target: T10, Transient receptor potential cation channel subfamily V member 3; assay: Agonist activity at ionomycin-stimulated TRPV3 (unknown origin) activation
[20] = biological target: T11, Transient receptor potential cation channel subfamily V member 2; assay: Agonist activity at ionomycin-stimulated TRPV2 (unknown origin) activation
Cannabinoid receptor 2 [21] = biological target: T8, Cannabinoid receptor 2; assay: Binding affinity to CB2 receptor (unknown origin) expressed in CHO -k1 cells assessed as inhibition constant; assay type: cell-based
Cytochrome P450 2A6 [22] = biological target: T4, Cytochrome P450 2A6; assay: Non competitive inhibition of recombinant human CYP2A6 using coumarin as substrate preincubated with NADPH for 20 mins and measured after 30 min; assay type: ADME
Cytochrome P450 2B6 [23] = biological target: T1, Cytochrome P450 2B6; assay: Inhibition of recombinant human CYP2B6 using coumarin as substrate preincubated with NADPH for 20 mins and measured after 30 min by Lineweaver-burk plots analysis; assay type: ADME

CCCCCc1cc(O)c2c(c1)OC(C)(C)c1ccc(C)cc1-2 [CANNABINOL]
Ki (Cytochrome P450 2B6 [1]): 39 µM
Ki (Cannabinoid receptor 1 [2]): 0.07 µM
Efficacy [3]: 60%
Ki (Cytochrome P450 2A6 [4]): 1 µM
Ki (Cannabinoid receptor 1 [5]): 1.1 µM
IC50 [6]: 0.4 µM
IC50 [7]: 82 µM
Efficacy [8]: 243%
IC50 [9]: 5.4 µM
EC50 [10]: 16.1 µM
IC50 [11]: 0.21 µM
Efficacy [12]: 74%
Efficacy [13]: < 10%
MIC (Staphylococcus aureus): 1 µg/mL (≈ 3.22 µM)
Ki (Cannabinoid receptor 2 [14]): 0.3 µM
Efficacy [15]: 72%
EC50 [16]: 0.18 µM
IC50 [17]: 9.4 µM
IC50 (Cytochrome P450 2J2): 19 µM
EC50 (HT-22): 0.61 µM
IC50 [18]: 15.7 µM
EC50 [19]: 5.3 µM
EC50 [20]: 19 µM
Ki (Cannabinoid receptor 2 [21]): 0.07 µM
IC50 (Cytochrome P450 2A6 [22]): 30.4 µM
Ki (Cytochrome P450 2B6 [23]): 2.55 µM
